This passage reports melting point results from patent publication US9051342B2 (priority 2004, dated 2015).

Several values for one entry are separate records, joined by “and”; a condition that tells them apart may be missing. Identical values can stand only once. A value given as a limit tells only on which side of the number the result lay.

Turning to `O=C(O)c1cccc(-c2ccn(-c3ccc(F)c(F)c3)n2)c1` [Compound 68, 3-[1-(3,4-Difluoro-phenyl)-1H-pyrazol-3-yl]-benzoic acid], the melting point (usually the temperature, or range, at which the solid turns liquid) lay in the range of 240 to 244 °C.
In the case of `O=C(O)c1cccc(-c2ccn(-c3cccc(C(=O)O)c3)n2)c1` [Compound 69, 1,3-Bis(3-carboxyphenyl)-1H-pyrazole] it was above 300 °C; in that of `O=C(O)c1cccc(-c2ccn(-c3ccc(O)cc3)n2)c1` [Compound 74, 3-[1-(4-Hydroxy-phenyl)-1H-pyrazol-3-yl]-benzoic acid], 228 to 230 °C; in that of `O=C(O)c1cccc(-c2ccn(-c3cccc(O)c3)n2)c1` [Compound 75, 3-[1-(3-Hydroxy-phenyl)-1H-pyrazol-3-yl]-benzoic acid], 178 to 190 °C and 178 to 179 °C.
In the case of `COc1ccc(-n2ccc(-c3cccc(C(=O)O)c3)n2)cc1` [Compound 76, 3-[1-(4-Methoxy-phenyl)-1H-pyrazol-3-yl]-benzoic acid] it was 160 to 161 °C; in that of `COc1cccc(-n2ccc(-c3cccc(C(=O)O)c3)n2)c1` [Compound 77, 3-[1-(3-Methoxy-phenyl)-1H-pyrazol-3-yl]-benzoic acid], 153 to 154 °C.
Compound `N#Cc1cccc(-c2ccn(-c3cccc(C(=O)O)c3)n2)c1` [Compound 78, 3-[3-(3-Cyano-phenyl)-pyrazol-1-yl]-benzoic acid] registered a melting point of 164 to 166 °C.
On to `O=C(O)c1cccc(-n2ccc(-c3ccccc3)n2)c1` [Compound 79, 3-(3-Phenyl-pyrazol-1-yl)-benzoic acid], for which the melting point is 180 to 182 °C.
`O=C(O)c1cccc(-n2ccc(-c3ccc(Cl)cc3)n2)c1` [Compound 80, 3-[3-(4-Chloro-phenyl)-pyrazol-1-yl]-benzoic acid] yielded a melting point of 230 to 235 °C.
As for `COc1ccc(-c2ccn(-c3cccc(C(=O)O)c3)n2)cc1` [Compound 81, 3-[3-(4-Methoxy-phenyl)-pyrazol-1-yl]-benzoic acid], the melting point was in the range of 210 to 211 °C.
Compound `O=C(O)c1cccc(-n2ccc(-c3ccc(N4CCOCC4)cc3)n2)c1` [Compound 82, 3-[3-(4-Morpholin-4-yl-phenyl)-pyrazol-1-yl]-benzoic acid] returned a melting point of 230 to 235 °C.
`O=C(O)c1cccc(-c2cnn(-c3ccc(Cl)cc3)c2)c1` [Compound 83, 3-[1-(4-Chloro-phenyl)-1H-pyrazol-4-yl]-benzoic acid]: the melting point lay within 205 to 206 °C.
Consider `O=C(O)c1cccc(-n2cc(-c3ccccc3F)cn2)c1` [Compound 84, 3-[4-(2-Fluoro-phenyl)-pyrazol-1-yl]-benzoic acid], for which the melting point is 225 to 226 °C.
In the case of `O=C(O)c1ccc(-n2cc(-c3ccccc3F)cn2)cc1` [Compound 85, 4-[4-(2-Fluoro-phenyl)-pyrazol-1-yl]-benzoic acid] it was 260 to 261 °C; in that of `O=C(O)c1cccc(-c2ccn(-c3ccccc3F)n2)c1` [Compound 86, 3-[1-(2-Fluoro-phenyl)-1H-pyrazol-3-yl]-benzoic acid], 157 to 158 °C.
`O=C(O)c1cccc(-c2ccn(-c3ccc4c(c3)OCO4)n2)c1` [Compound 87, 3-(1-Benzo[1,3]dioxol-5-yl-1H-pyrazol-3-yl)-benzoic acid]: the melting point fell in the range of 210 to 215 °C.
In turn, `O=C(O)c1cccc(-n2cc(-c3cccc(Br)c3)cn2)c1` [Compound 88, 3-[4-(3-Bromo-phenyl)-pyrazol-1-yl]-benzoic acid] showed a melting point of 177 to 178 °C.
For `O=C(O)c1ccc(-n2cc(-c3cccc(Br)c3)cn2)cc1` [Compound 89, 4-[4-(3-Bromo-phenyl)-pyrazol-1-yl]-benzoic acid], the melting point fell in the range of 247 to 248 °C.
`Cc1cccc(-c2cnn(-c3cccc(C(=O)O)c3)c2)c1` [Compound 90, 3-(4-m-Tolyl-pyrazol-1-yl)-benzoic acid] displayed a melting point of 181 to 182 °C.
Regarding `Cc1cccc(-c2cnn(-c3ccc(C(=O)O)cc3)c2)c1` [Compound 91, 4-(4-m-Tolyl-pyrazol-1-yl)-benzoic acid], the melting point lay in the range of 251 to 252 °C.
As for `O=C(O)c1cccc(-n2ccc(-c3ccc(F)cc3)n2)c1` [Compound 92, 3-[3-(4-Fluoro-phenyl)-pyrazol-1-yl]-benzoic acid], the melting point was in the range of 237 to 240 °C.
`O=C(O)c1cccc(-n2ccc(-c3cccc(F)c3)n2)c1` [Compound 93, 3-[3-(3-Fluoro-phenyl)-pyrazol-1-yl]-benzoic acid] showed a melting point of 173 to 174 °C.
On to `O=C(O)c1cccc(-n2ccc(-c3ccc(C(F)(F)F)cc3)n2)c1` [Compound 94], for which the melting point lay within 225 to 227 °C.
For `O=C(O)c1cccc(-n2ccc(-c3ccc(OC(F)(F)F)cc3)n2)c1` [Compound 95, 3-[3-(4-Trifluoromethoxy-phenyl)-pyrazol-1-yl]-benzoic acid], the melting point is 191 to 194 °C.
`O=C(O)c1cccc(-c2ccn(-c3ccc(F)cc3)n2)c1` [Compound 96, 3-[1-(4-Fluoro-phenyl)-1H-pyrazol-3-yl]-benzoic acid] displayed a melting point of 245 to 246 °C.
As for `COc1ccc(-n2cc(-c3cccc(C(=O)O)c3)cn2)cc1` [Compound 97], the melting point was 225 to 227 °C and 223 to 225 °C.
Regarding `O=C(O)c1cccc(-n2cc(-c3ccccc3)cn2)c1` [Compound 98, 3-(4-Phenyl-pyrazol-1-yl)-benzoic acid], the melting point lay within 225 to 226 °C.
`O=C(O)c1ccc(-n2cc(-c3ccccc3)cn2)cc1` [Compound 99, 4-(4-Phenyl-pyrazol-1-yl)-benzoic acid]: the melting point fell in the range of 267 to 269 °C.
Next, `O=C(O)c1cccc(-n2cc(-c3ccc(O)cc3)cn2)c1` [Compound 100, 3-[4-(4-Hydroxy-phenyl)-pyrazol-1-yl]-benzoic acid]: 282 to 284 °C; `O=C(O)c1cccc(-n2cc(-c3ccc([N+](=O)[O-])cc3)cn2)c1` [Compound 101, 3-[4-(4-Nitro-phenyl)-pyrazol-1-yl]-benzoic acid]: 274 to 276 °C; `O=C(O)c1ccc(-n2cc(-c3ccc([N+](=O)[O-])cc3)cn2)cc1` [Compound 102, 4-[4-(4-Nitro-phenyl)-pyrazol-1-yl]-benzoic acid]: 276 to 277 °C.
In turn, `O=C(O)c1cccc(-n2cc(-c3ccc(F)cc3F)cn2)c1` [Compound 103, 3-[4-(2,4-Difluoro-phenyl)-pyrazol-1-yl]-benzoic acid] returned a melting point of 283 to 285 °C.
Consider `O=C(O)c1ccc(-n2cc(-c3ccc(F)cc3F)cn2)cc1` [Compound 104, 4-[4-(2,4-Difluoro-phenyl)-pyrazol-1-yl]-benzoic acid], for which the melting point is 291 to 293 °C.
Consider `CC(C)c1ccc(-n2ccc(-c3ccc(C(=O)O)cc3)c2)cc1` [Compound 106, 4-[1-(4-Isopropyl-phenyl)-1H-pyrrol-3-yl]-benzoic acid], for which the melting point fell in the range of 240 to 243 °C.
`O=C(O)c1cccc(-n2cc(-c3ccc(OC(F)F)cc3)cn2)c1` [Compound 107, 3-[4-(4-Difluoromethoxy-phenyl)-pyrazol-1-yl]-benzoic acid] had a melting point of 118 to 120 °C.
`Nc1ccc(-c2cnn(-c3cccc(C(=O)O)c3)c2)cc1` [Compound 108, 3-[4-(4-Amino-phenyl)-pyrazol-1-yl]-benzoic acid]: the melting point was 209 to 210 °C.
Compound `COc1cccc(-c2cnn(-c3ccc(C(=O)O)cc3)c2)c1` [Compound 109, 4-[4-(3-Methoxy-phenyl)-pyrazol-1-yl]-benzoic acid] yielded a melting point of 222 to 223 °C.
Consider `CN(C)c1ccc(-c2cnn(-c3cccc(C(=O)O)c3)c2)cc1` [Compound 110, 3-[4-(4-Dimethylamino-phenyl)-pyrazol-1-yl]-benzoic acid], for which the melting point was in the range of 224 to 225 °C.
On to `O=C(O)c1cccc(-n2cc(-c3ccc4c(c3)OCO4)cn2)c1` [Compound 111, 3-(4-Benzo[1,3]dioxol-5-yl-pyrazol-1-yl)-benzoic acid], for which the melting point was in the range of 264 to 265 °C.
Compound `COc1cccc(-c2cnn(-c3cccc(C(=O)O)c3)c2)c1` [Compound 112, 3-[4-(3-Methoxy-phenyl)-pyrazol-1-yl]-benzoic acid] displayed a melting point of 157 to 158 °C.
In the case of `O=C(O)c1cccc(-n2cc(-c3ccccn3)cn2)c1` [Compound 113, 3-(4-Pyridin-2-yl-pyrazol-1-yl)-benzoic acid], the melting point lay within 243 to 245 °C.
In the case of `O=C(O)c1ccc(-n2cc(-c3ccccn3)cn2)cc1` [Compound 114, 4-(4-Pyridin-2-yl-pyrazol-1-yl)-benzoic acid] it was 260 to 262 °C; in that of `O=C(O)c1cccc(-n2cc(-c3ccncc3)cn2)c1` [Compound 115, 3-(4-Pyridin-4-yl-pyrazol-1-yl)-benzoic acid], 300 to 302 °C.
For the compound `O=C(O)c1ccc(-n2cc(-c3ccncc3)cn2)cc1` [Compound 116, 4-(4-Pyridin-4-yl-pyrazol-1-yl)-benzoic acid], the melting point was above 350 °C.
In the case of `O=C(O)c1cccc(-n2cc(-c3ccncn3)cn2)c1` [Compound 117, 3-(4-Pyrimidin-4-yl-pyrazol-1-yl)-benzoic acid] it was 297 to 299 °C; in that of `O=C(O)c1ccc(-n2cc(-c3ccncn3)cn2)cc1` [Compound 118, 4-(4-Pyrimidin-4-yl-pyrazol-1-yl)-benzoic acid], above 350 °C; in that of `O=C(O)c1cccc(-n2cc(-c3cnccn3)cn2)c1` [Compound 119, 3-(4-Pyrazin-2-yl-pyrazol-1-yl)-benzoic acid], 310 to 311 °C.
With `O=C(O)c1ccc(-n2cc(-c3cnccn3)cn2)cc1` [Compound 120, 4-(4-Pyrazin-2-yl-pyrazol-1-yl)-benzoic acid], the melting point is 319 to 321 °C.
Take `O=C(O)c1cccc(-n2cc(-c3nc4ccccc4o3)cn2)c1` [Compound 121, 3-(4-Benzooxazol-2-yl-pyrazol-1-yl)-benzoic acid]: the melting point lay within 331 to 333 °C.
The compound `O=C(O)c1cccc(-n2cc(-c3cnc4ccccc4n3)cn2)c1` [Compound 122, 3-(4-Quinoxalin-2-yl-pyrazol-1-yl)-benzoic acid] had a melting point of 325 to 326 °C.
